Measured values: US12522594B2, “2-heteroaryl-3-oxo-2,3-dihydropyridazine-4-carboxamides for the treatment of cancer” (Deutsches Krebsforschungszentrum, priority 2017, dated 2026)

Assays:
[1] = target: T1, AHR (Homo sapiens, UniProt P35869); assay: In vitro assay 2: agonism in human cell line (transactivation assay, U87 cells, DRE firefly luciferase reporter); assay type: cell-based; design: host or cells: U87 glioblastoma cells, stably transfected with DRE firefly luciferase and renilla reporter constructs; conditions: no kynurenic acid, 20 hours, read-out: Assay 2: AHR-luc Hum Agonism IC50
T1 sequence (P35869 11-848): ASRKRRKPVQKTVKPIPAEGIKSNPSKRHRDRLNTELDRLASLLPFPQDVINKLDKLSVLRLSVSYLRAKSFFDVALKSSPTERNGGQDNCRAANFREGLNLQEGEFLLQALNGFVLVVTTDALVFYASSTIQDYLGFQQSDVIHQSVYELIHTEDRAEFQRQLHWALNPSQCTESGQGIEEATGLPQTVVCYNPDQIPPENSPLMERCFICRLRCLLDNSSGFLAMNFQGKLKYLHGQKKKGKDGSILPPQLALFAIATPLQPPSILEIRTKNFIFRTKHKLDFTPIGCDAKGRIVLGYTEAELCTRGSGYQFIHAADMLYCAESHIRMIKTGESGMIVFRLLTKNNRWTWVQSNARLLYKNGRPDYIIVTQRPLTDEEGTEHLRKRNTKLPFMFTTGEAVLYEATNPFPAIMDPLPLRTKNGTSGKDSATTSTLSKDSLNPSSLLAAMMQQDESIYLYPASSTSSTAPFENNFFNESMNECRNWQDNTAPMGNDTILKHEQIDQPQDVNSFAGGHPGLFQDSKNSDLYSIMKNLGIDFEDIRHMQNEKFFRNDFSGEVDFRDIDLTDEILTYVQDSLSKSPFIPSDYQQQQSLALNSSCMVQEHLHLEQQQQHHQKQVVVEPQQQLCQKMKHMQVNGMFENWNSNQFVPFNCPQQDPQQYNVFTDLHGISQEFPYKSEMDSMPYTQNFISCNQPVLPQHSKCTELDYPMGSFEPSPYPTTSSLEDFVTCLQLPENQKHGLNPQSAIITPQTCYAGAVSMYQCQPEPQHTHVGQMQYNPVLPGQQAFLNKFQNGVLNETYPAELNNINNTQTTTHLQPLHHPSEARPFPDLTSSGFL
Experimental: (§1) Transactivation Assay in Human Cell Line (In Vitro Assays 1 and 2)
(§2) Transactivation assays were carried out in U87 glioblastoma cells (ATCC) endogenously expressing AHR. In addition the cells were stably transfected with an AHR inducible firefly luciferase reporter gene construct that carried AHR-binding sites (DRE) in its promoter and a renilla reporter gene construct with constitutively active promoter. Kynurenic acid is an endogenous AHR activating ligand and was used to prestimulate test cells prior to testing the antagonistic properties of compounds.
In Vitro Assay 2: Agonism in Human Cell Line
As positive activation control cells were incubated with 300 uM kynurenic acid. Normalization was done by positive and negative controls.

[2] = target: T1, AHR; assay: In vitro assay 1: antagonism in human cell line (transactivation assay, U87 cells prestimulated with kynurenic acid, DRE firefly luciferase reporter); assay type: cell-based; design: host or cells: U87 glioblastoma cells, stably transfected with DRE firefly luciferase and renilla reporter constructs; conditions: 150 uM kynurenic acid, 20 hours, read-out: Assay 1: AHR-luc Hum Antagonism IC50
Experimental: as §1, §2
In Vitro Assay 1: Antagonism in Human Cell Line
Normalization was done by positive and negative controls.

IC50 [1] [nM] | IC50 [2] [nM] | SMILES
> 20000 | 1.49 | CC(NC(=O)c1cc(-c2ccc(Cl)cc2)nn(-c2cccnc2)c1=O)C(O)C(F)(F)F (single isomer, unassigned) [Example 297, 6-(4-Chlorophenyl)-3-oxo-2-(pyridin-3-yl)-N-(4,4,4-trifluoro-3-hydroxybutan-2-yl)-2,3-dihydropyridazine-4-carboxamide]
> 20000 | 3.69 | CC(NC(=O)c1cc(-c2ccc(Cl)cc2)nn(-c2cccnc2)c1=O)C(O)C(F)(F)F (single isomer, unassigned) [Example 298, 6-(4-Chlorophenyl)-3-oxo-2-(pyridin-3-yl)-N-(4,4,4-trifluoro-3-hydroxybutan-2-yl)-2,3-dihydropyridazine-4-carboxamide]
> 20000 | 13.3 | CC(NC(=O)c1cc(-c2ccc(Cl)cc2)nn(-c2cccnc2)c1=O)C(O)C(F)(F)F (single isomer, unassigned) [Example 299, 6-(4-Chlorophenyl)-3-oxo-2-(pyridin-3-yl)-N-(4,4,4-trifluoro-3-hydroxybutan-2-yl)-2,3-dihydropyridazine-4-carboxamide]
> 20000 | 1.33 | Cn1cc(-n2nc(-c3ccc(OC(F)F)cc3)cc(C(=O)NC(C(C)(C)O)C(F)(F)F)c2=O)cn1 (single isomer, unassigned) [Example 306, 6-[4-(Difluoromethoxy)phenyl]-2-(1-methyl-1H-pyrazol-4-yl)-3-oxo-N-(1,1,1-trifluoro-3-hydroxy-3-methylbutan-2-yl)-2,3-dihydropyridazine-4-carboxamide]
> 20000 | 73.9 | Cn1cc(-n2nc(-c3ccc(OC(F)F)cc3)cc(C(=O)NC(C(C)(C)O)C(F)(F)F)c2=O)cn1 (single isomer, unassigned) [Example 307, 6-[4-(Difluoromethoxy)phenyl]-2-(1-methyl-1H-pyrazol-4-yl)-3-oxo-N-(1,1,1-trifluoro-3-hydroxy-3-methylbutan-2-yl)-2,3-dihydropyridazine-4-carboxamide]
> 20000 | 32 | O=C(N[C@@H]1COC[C@@H]1O)c1cc(-c2ccc(C(F)F)cc2)nn(-c2cccnc2)c1=O (single isomer, unassigned) [Example 318, 6-[4-(Difluoromethyl)phenyl]-N-[(cis)-4-hydroxy-tetrahydrofuran-3-yl]-3-oxo-2-(pyridin-3-yl)-2,3-dihydropyridazine-4-carboxamide]
> 20000 | 44.1 | Cn1cc(-n2nc(-c3ccc(C(F)F)cc3)cc(C(=O)N[C@@H]3COC[C@@H]3O)c2=O)cn1 (single isomer, unassigned) [Example 320, 6-[4-(Difluoromethyl)phenyl]-N-[(cis)-4-hydroxytetrahydrofuran-3-yl]-2-(1-methyl-1H-pyrazol-4-yl)-3-oxo-2,3-dihydropyridazine-4-carboxamide]
> 20000 | 29.4 | C[C@]1(O)CCC[C@H]1NC(=O)c1cc(-c2ccc(OC(F)(F)F)cc2)nn(-c2cccnc2)c1=O (single isomer, unassigned) [Example 329, N-[(cis)-2-hydroxy-2-methylcyclopentyl]-3-oxo-2-(pyridin-3-yl)-6-[4-(trifluoromethoxy)phenyl]-2,3-dihydropyridazine-4-carboxamide]
> 20000 | 92.7 | C[C@]1(O)CCC[C@H]1NC(=O)c1cc(-c2ccc(OC(F)(F)F)cc2)nn(-c2cccnc2)c1=O (single isomer, unassigned) [Example 330, N-[(cis)-2-hydroxy-2-methylcyclopentyl]-3-oxo-2-(pyridin-3-yl)-6-[4-(trifluoromethoxy)phenyl]-2,3-dihydropyridazine-4-carboxamide]
> 20000 | 11.3 | Cn1cc(-n2nc(-c3ccc(Cl)cc3)cc(C(=O)N[C@@H]3CCC[C@]3(C)O)c2=O)cn1 (single isomer, unassigned) [Example 335, 6-(4-Chlorophenyl)-N-[(cis)-2-hydroxy-2-methylcyclopentyl]-2-(1-methyl-1H-pyrazol-4-yl)-3-oxo-2,3-dihydropyridazine-4-carboxamide]
